target: T1, LmxCLK1 (Leishmania mexicana, UniProt E9AMP2); experiment: biochemical; type: binding; conditions: not given
T1 sequence (E9AMP2 1-422): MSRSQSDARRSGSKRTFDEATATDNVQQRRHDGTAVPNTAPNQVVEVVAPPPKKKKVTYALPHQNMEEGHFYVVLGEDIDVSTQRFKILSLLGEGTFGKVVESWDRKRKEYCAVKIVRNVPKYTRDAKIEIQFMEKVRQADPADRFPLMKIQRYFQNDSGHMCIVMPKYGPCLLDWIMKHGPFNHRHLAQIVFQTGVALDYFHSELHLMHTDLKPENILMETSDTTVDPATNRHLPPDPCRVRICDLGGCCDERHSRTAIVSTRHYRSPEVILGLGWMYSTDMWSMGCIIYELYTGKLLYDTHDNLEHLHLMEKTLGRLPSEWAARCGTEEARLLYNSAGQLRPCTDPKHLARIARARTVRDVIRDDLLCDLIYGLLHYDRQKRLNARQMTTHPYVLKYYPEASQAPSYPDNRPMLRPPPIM

Point of comparison: `COc1ccc(F)c(F)c1C(=O)c1cnc(NC2CCN(S(C)(=O)=O)CC2)nc1N` [R547], “ΔTm Average” value -0.2. Against it:
- O=C1NC(=O)/C(=C/c2cccc(C(F)(F)F)c2)S1 [SMI-4a] — the same, -0.2

Point of comparison: `Cc1nc(NC(=O)N2CCC[C@H]2C(N)=O)sc1-c1csc(C(C)(C)C)n1` [A66], ΔTm Run 1 0.4 °C. Against it:
- COc1ccc(F)c(F)c1C(=O)c1cnc(NC2CCN(S(C)(=O)=O)CC2)nc1N [R547] — lower, 0 °C

Point of comparison: `COc1ccc(F)c(F)c1C(=O)c1cnc(NC2CCN(S(C)(=O)=O)CC2)nc1N` [R547], “ΔTm Run 2” value -0.4. Against it:
- O=C1NC(=O)/C(=C/c2cccc(C(F)(F)F)c2)S1 [SMI-4a] — higher, -0.1
- Cc1nc(NC(=O)N2CCC[C@H]2C(N)=O)sc1-c1csc(C(C)(C)C)n1 [A66] — higher, -0.3

With `O=C1NC(=O)/C(=C/c2cccc(C(F)(F)F)c2)S1` [SMI-4a] the “ΔTm Run 1” value was -0.3.

`Cc1nc(NC(=O)N2CCC[C@H]2C(N)=O)sc1-c1csc(C(C)(C)C)n1` [A66] was tested, and the ΔTm Average was 0 °C.

same assay, conditions: DSF, 10 µM compound, 2 µM LmxCLK1, Run 1

Point of comparison: `Cc1ccc(-n2nc(C(C)(C)C)cc2NC(=O)Nc2ccc(OCCN3CCOCC3)c3ccccc23)cc1` [BIRB 796 (Doramapimod)], “ΔTm Run 1” value 0.5 °C. Against it:
- Cc1cc(C)nc(NS(=O)(=O)c2ccc(NC(=S)NC(=O)COc3ccc(Br)cc3Cl)cc2)n1 [ZCL278] — lower, 0.1 °C
- CN1CCN(c2ccc3nc(-c4c(N)c5c(F)cccc5[nH]c4=O)[nH]c3c2)CC1 [Dovitinib (TKI-258)] — the same, 0.5 °C
- CCC[C@H](NC(=O)/C(C#N)=C/c1cccc(Br)n1)c1ccccc1 [Degrasyn (WP1130)] — lower, 0.4 °C
- Cl.Cl.Clc1ccc(Nc2nnc(Cc3ccncc3)c3ccccc23)cc1 [Vatalanib (PTK787) 2HCl] — lower, -0.2 °C
- Cl.Cl.Fc1cc(-c2cccc3ncc(-c4cnn(C5CCNCC5)c4)nc23)cc(F)c1CN1CCOCC1 [NVP-BSK805 2HCl] — higher, 0.9 °C
- N#Cc1c(Oc2ccc(F)c(NC(=O)Cc3cccc(C(F)(F)F)c3)c2)ccc2nc(NC(=O)C3CC3)sc12 [TAK-632] — lower, 0.2 °C
- COc1ccc(C(=O)Nc2sc3c(c2C(N)=O)CCCC3)cc1OC [TCS 359] — lower, 0.0 °C
- CS(=O)(=O)O.Cn1cc(C2=C(c3cn(CCCSC(=N)N)c4ccccc34)C(=O)NC2=O)c2ccccc21 [Ro 31-8220 Mesylate] — higher, 1.1 °C
- O=c1[nH]c2ccc(Cl)cc2c(N[C@@H]2CN3CCC2CC3)c1-c1nc2ccccc2[nH]1 [CHIR-124] — lower, 0.3 °C
- CC(C)(C)c1cnc(CSc2cnc(NC(=O)C3CCNCC3)s2)o1 [SNS-032 (BMS-387032)] — lower, 0.2 °C
- CN1CCC(CNc2ccc3ncc(-c4cccc(OC(F)(F)F)c4)n3n2)CC1 [SGI-1776 free base] — higher, 0.7 °C
- CN1CCN(c2ccc(OC(F)(F)F)c(Nc3ncc4c(n3)-c3c(c(C(N)=O)nn3CCO)CC4)c2)CC1 [NMS-P937 (NMS1286937)] — lower, 0.0 °C
- COc1ncc(-c2ccc3nccc(-c4ccnnc4)c3c2)cc1NS(=O)(=O)c1ccc(F)cc1F [GSK2126458 (GSK458)] — lower, -0.2 °C
- O=C(c1cccc(Cl)c1F)N1CCN(Cc2cccc(Nc3nccs3)n2)CC1 [MK-8745] — higher, 1.1 °C
- Cc1ccc(F)c(NC(=O)Nc2ccc(-c3cccc4[nH]nc(N)c34)cc2)c1 [Linifanib (ABT-869)] — lower, 0.3 °C
- Cc1cnc(Nc2ccc(N3CCN(C)CC3)cc2)nc1Nc1cccc(S(=O)(=O)NC(C)(C)C)c1 [TG101209] — lower, 0.2 °C
- C[C@@H](N)[C@H]1CC[C@H](C(=O)Nc2ccncc2)CC1.Cl.Cl [Y-27632 2HCl] — lower, 0.1 °C
- CC(C)(C#N)c1ccc(N2C(=O)OCc3cnc4ccc(-c5cnc6ccccc6c5)cc4c32)cc1 [ETP-46464] — lower, 0.3 °C
- COc1cc2nccc(Oc3ccc(NC(=O)Nc4ccc(F)cc4F)c(F)c3)c2cc1OC [Ki8751] — lower, 0.0 °C

same assay, conditions: DSF, 10 µM compound, 2 µM LmxCLK1, Run 2

Point of comparison: `C[C@@H](N)[C@H]1CC[C@H](C(=O)Nc2ccncc2)CC1.Cl.Cl` [Y-27632 2HCl], “ΔTm Run 2” value 0.1 °C. Against it:
- Cc1cc(C)nc(NS(=O)(=O)c2ccc(NC(=S)NC(=O)COc3ccc(Br)cc3Cl)cc2)n1 [ZCL278] — lower, -0.1 °C
- CN1CCN(c2ccc3nc(-c4c(N)c5c(F)cccc5[nH]c4=O)[nH]c3c2)CC1 [Dovitinib (TKI-258)] — higher, 0.2 °C
- CCC[C@H](NC(=O)/C(C#N)=C/c1cccc(Br)n1)c1ccccc1 [Degrasyn (WP1130)] — higher, 0.2 °C
- Cl.Cl.Clc1ccc(Nc2nnc(Cc3ccncc3)c3ccccc23)cc1 [Vatalanib (PTK787) 2HCl] — lower, 0.0 °C
- Cl.Cl.Fc1cc(-c2cccc3ncc(-c4cnn(C5CCNCC5)c4)nc23)cc(F)c1CN1CCOCC1 [NVP-BSK805 2HCl] — higher, 0.7 °C
- N#Cc1c(Oc2ccc(F)c(NC(=O)Cc3cccc(C(F)(F)F)c3)c2)ccc2nc(NC(=O)C3CC3)sc12 [TAK-632] — the same, 0.1 °C
- COc1ccc(C(=O)Nc2sc3c(c2C(N)=O)CCCC3)cc1OC [TCS 359] — lower, 0.0 °C
- CS(=O)(=O)O.Cn1cc(C2=C(c3cn(CCCSC(=N)N)c4ccccc34)C(=O)NC2=O)c2ccccc21 [Ro 31-8220 Mesylate] — higher, 1.6 °C
- O=c1[nH]c2ccc(Cl)cc2c(N[C@@H]2CN3CCC2CC3)c1-c1nc2ccccc2[nH]1 [CHIR-124] — lower, 0.0 °C
- CC(C)(C)c1cnc(CSc2cnc(NC(=O)C3CCNCC3)s2)o1 [SNS-032 (BMS-387032)] — lower, 0.0 °C
- CN1CCC(CNc2ccc3ncc(-c4cccc(OC(F)(F)F)c4)n3n2)CC1 [SGI-1776 free base] — higher, 0.5 °C
- CN1CCN(c2ccc(OC(F)(F)F)c(Nc3ncc4c(n3)-c3c(c(C(N)=O)nn3CCO)CC4)c2)CC1 [NMS-P937 (NMS1286937)] — lower, 0.0 °C
- COc1ncc(-c2ccc3nccc(-c4ccnnc4)c3c2)cc1NS(=O)(=O)c1ccc(F)cc1F [GSK2126458 (GSK458)] — lower, -0.3 °C
- Cc1ccc(-n2nc(C(C)(C)C)cc2NC(=O)Nc2ccc(OCCN3CCOCC3)c3ccccc23)cc1 [BIRB 796 (Doramapimod)] — higher, 0.4 °C
- O=C(c1cccc(Cl)c1F)N1CCN(Cc2cccc(Nc3nccs3)n2)CC1 [MK-8745] — higher, 1.0 °C
- Cc1ccc(F)c(NC(=O)Nc2ccc(-c3cccc4[nH]nc(N)c34)cc2)c1 [Linifanib (ABT-869)] — higher, 0.6 °C
- Cc1cnc(Nc2ccc(N3CCN(C)CC3)cc2)nc1Nc1cccc(S(=O)(=O)NC(C)(C)C)c1 [TG101209] — lower, -0.3 °C
- CC(C)(C#N)c1ccc(N2C(=O)OCc3cnc4ccc(-c5cnc6ccccc6c5)cc4c32)cc1 [ETP-46464] — lower, -0.4 °C
- COc1cc2nccc(Oc3ccc(NC(=O)Nc4ccc(F)cc4F)c(F)c3)c2cc1OC [Ki8751] — lower, -0.2 °C

same assay, conditions: DSF, 10 µM compound, 2 µM LmxCLK1, mean of two runs

Point of comparison: `COc1ccc(C(=O)Nc2sc3c(c2C(N)=O)CCCC3)cc1OC` [TCS 359], “ΔTm Average” value 0.0 °C. Against it:
- Cc1cc(C)nc(NS(=O)(=O)c2ccc(NC(=S)NC(=O)COc3ccc(Br)cc3Cl)cc2)n1 [ZCL278] — the same, 0.0 °C
- CN1CCN(c2ccc3nc(-c4c(N)c5c(F)cccc5[nH]c4=O)[nH]c3c2)CC1 [Dovitinib (TKI-258)] — higher, 0.3 °C
- CCC[C@H](NC(=O)/C(C#N)=C/c1cccc(Br)n1)c1ccccc1 [Degrasyn (WP1130)] — higher, 0.3 °C
- Cl.Cl.Clc1ccc(Nc2nnc(Cc3ccncc3)c3ccccc23)cc1 [Vatalanib (PTK787) 2HCl] — lower, -0.1 °C
- Cl.Cl.Fc1cc(-c2cccc3ncc(-c4cnn(C5CCNCC5)c4)nc23)cc(F)c1CN1CCOCC1 [NVP-BSK805 2HCl] — higher, 0.8 °C
- N#Cc1c(Oc2ccc(F)c(NC(=O)Cc3cccc(C(F)(F)F)c3)c2)ccc2nc(NC(=O)C3CC3)sc12 [TAK-632] — higher, 0.1 °C
- CS(=O)(=O)O.Cn1cc(C2=C(c3cn(CCCSC(=N)N)c4ccccc34)C(=O)NC2=O)c2ccccc21 [Ro 31-8220 Mesylate] — higher, 1.3 °C
- O=c1[nH]c2ccc(Cl)cc2c(N[C@@H]2CN3CCC2CC3)c1-c1nc2ccccc2[nH]1 [CHIR-124] — higher, 0.2 °C
- CC(C)(C)c1cnc(CSc2cnc(NC(=O)C3CCNCC3)s2)o1 [SNS-032 (BMS-387032)] — higher, 0.1 °C
- CN1CCC(CNc2ccc3ncc(-c4cccc(OC(F)(F)F)c4)n3n2)CC1 [SGI-1776 free base] — higher, 0.6 °C
- CN1CCN(c2ccc(OC(F)(F)F)c(Nc3ncc4c(n3)-c3c(c(C(N)=O)nn3CCO)CC4)c2)CC1 [NMS-P937 (NMS1286937)] — the same, 0.0 °C
- COc1ncc(-c2ccc3nccc(-c4ccnnc4)c3c2)cc1NS(=O)(=O)c1ccc(F)cc1F [GSK2126458 (GSK458)] — lower, -0.3 °C
- Cc1ccc(-n2nc(C(C)(C)C)cc2NC(=O)Nc2ccc(OCCN3CCOCC3)c3ccccc23)cc1 [BIRB 796 (Doramapimod)] — higher, 0.4 °C
- O=C(c1cccc(Cl)c1F)N1CCN(Cc2cccc(Nc3nccs3)n2)CC1 [MK-8745] — higher, 1.0 °C
- Cc1ccc(F)c(NC(=O)Nc2ccc(-c3cccc4[nH]nc(N)c34)cc2)c1 [Linifanib (ABT-869)] — higher, 0.4 °C
- Cc1cnc(Nc2ccc(N3CCN(C)CC3)cc2)nc1Nc1cccc(S(=O)(=O)NC(C)(C)C)c1 [TG101209] — the same, 0.0 °C
- C[C@@H](N)[C@H]1CC[C@H](C(=O)Nc2ccncc2)CC1.Cl.Cl [Y-27632 2HCl] — higher, 0.1 °C
- CC(C)(C#N)c1ccc(N2C(=O)OCc3cnc4ccc(-c5cnc6ccccc6c5)cc4c32)cc1 [ETP-46464] — lower, -0.1 °C
- COc1cc2nccc(Oc3ccc(NC(=O)Nc4ccc(F)cc4F)c(F)c3)c2cc1OC [Ki8751] — lower, -0.1 °C

Reference: article PMC7619385 (ACS infectious diseases, 2025)
